Source: US20230227445A1, “BENZAMIDE COMPOUND AND USE THEREOF” (HUMANWELL HEALTHCARE (GROUP) CO., LTD., priority 2020, published 2023)
Where a name gives a salt, the structure may show the parent alone.

Columns and labels:
hP2X3 receptor = target: T1, hP2X3 receptor (Homo sapiens, UniProt P56373); assay: Antagonistic activity against hP2X3 receptor by FLIPR calcium flow assay; format: cell-based; details: for IC50: human cells stably transfected with hP2X3, agonist α,β-meATP 400 nM; for antagonistic activity against hP2X3 receptor compared with Reference compound 1 (in words): vs Reference compound 1
T1 construct: expressed in transfected cells
T1 sequence (P56373 1-397): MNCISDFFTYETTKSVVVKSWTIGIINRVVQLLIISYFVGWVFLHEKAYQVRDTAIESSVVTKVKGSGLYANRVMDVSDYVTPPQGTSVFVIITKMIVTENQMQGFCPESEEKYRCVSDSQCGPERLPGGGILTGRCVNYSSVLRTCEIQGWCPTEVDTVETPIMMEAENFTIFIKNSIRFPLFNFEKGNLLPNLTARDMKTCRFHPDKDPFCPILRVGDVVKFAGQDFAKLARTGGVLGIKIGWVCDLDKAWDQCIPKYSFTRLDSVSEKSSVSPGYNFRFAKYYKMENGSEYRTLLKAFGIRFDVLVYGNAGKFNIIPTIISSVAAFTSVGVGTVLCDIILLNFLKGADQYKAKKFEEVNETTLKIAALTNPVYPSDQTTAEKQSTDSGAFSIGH
Experimental: The antagonistic activity of hP2X3 antagonists against hP2X3 receptor was evaluated by means of FLIPR Calcium 4 Assay Kit (Molecular Devices, R8141) and FLIPR TETRA instrument (Molecular Devices, 0296) by detecting calcium flow signals. 24h before the experiment, human cells, which had been stably transfected with hP2X3 receptors, were plated on a 384-well plate at 2×10^5 cells/mL, with 50 μL of cell suspension per well, and the plate was cultured in an incubator (37° C., 5% CO2) for 16 h to 24 h. The test compound solution (20 to 50 mM DMSO stock solution) with a concentration of 180 times the required concentration was prepared using DMSO. The stock solution was added to the 384-well plate at 500 nL per well, supplemented with 30 μL of FLIPR Assay buffer (1×HBSS+2 mM CaCl2 20 mM HEPES containing 1.26 mM Ca^2+). The 384-well plate was shaken for 20 to 40 min to mix evenly. An agonist (α, β-meATP) with a concentration of 3 times the required concentration (required final concentration was 400 nM) was prepared with FLIPR Assay buffer, and was added to another 384-well plate at 45 μL per well. The culture plate, on which the cells were plated one day ago, was taken, the cell supernatant was sucked and discarded, each well was added with 30 μL of Dye (FLIPR® Calcium 4 Assay Kit, diluted with FLIPR buffer), and then the plate was incubated for 1h. 15 μL of compound was added to each well of cells (using FLIPR sample injector). After 15 minutes, 22.5 μL of the agonist was added to each well, and the fluorescence signal (exciting light wavelength ranging from 470 nm to 495 nm, and emission wavelength ranging from 515 nm to 575 nm) was detect. […] An inhibition effect curve of the compound was fitted on the software GraphpadPrism6, and the IC50 value was calculated.

rat taste = assay: Taste test in rat (water vs 0.3 mM aqueous quinine solution intake); format: in vivo, SD rats; details: SD rats, 30 mg/kg i.p, 0.3 mM quinine, 15 min supply half an hour after administration
Experimental: SD rats were administered with the corresponding compound after 3 days of overnight water prohibition training. Each rat was supplied with 1 bottle of water and 1 bottle of 0.3 mM aqueous quinine solution half an hour after the administration. After 15 min of water supply, the bottles were removed. The intake amount of water and the intake amount of the 0.3 mM aqueous quinine solution were measured, respectively. The taste influence of the compound on SD rats was evaluated based on the difference between the intake amount of water and the intake amount of the aqueous quinine solution.

[1] = Pharmacokinetic assay in mouse; format: in vivo, ICR mice
Experimental: For a mouse pharmacokinetic assay, male ICR mice (20 g to 25 g) were selected and fasted overnight. Three mice were intragastrically administered with 10 mg/kg of the corresponding compound. The blood of the mice was collected before the administration and at 15 min, 30 min, 1 h, 2 h, 4 h, 8 h, and 24 h after the administration. The blood samples were centrifuged at 4° C. for 6 minutes at 6,800 g, plasma was collected and stored at −80° C.
The supernatant was mixed with 3 times the amount of water, and an appropriate amount of the mixed solution was taken for LC-MS/MS analysis. The primary pharmacokinetic parameters were analyzed by WinNonlin 7.0 software non-atrioventricular model.

[2] = system: histamine/citric acid-stimulated cough in guinea pig; assay: Efficacy test for histamine/citric acid-stimulated cough in guinea pig; format: in vivo; details: guinea pigs, nasal drops, 0.17 mg/kg to 1.5 mg/kg, histamine/citric acid stimulation
Experimental: Guinea pigs were adaptively fed for 3 days to 7 days before being grouped. When the body weight of the guinea pigs reached 300 g to 400 g, they were numbered and randomly grouped.
Compounds or an excipient were administered to guinea pigs by nasal drops 0.25 hour to 24 hours before the start of the cough assessment. The administration dose of the test sample ranged from 0.17 mg/kg to 1.5 mg/kg. For the cough assessment, the guinea pigs were placed in a whole-body volume scan box for adaptation, and then, they were provided with histamine nebulization and then citric acid nebulization. […]
The experimental data was statistically analyzed by one-way ANOVA to analyze and compare data of the various groups. The statistical analysis result p<0.05 was regarded as a significant difference. The t-test was employed for difference comparison between any two.

[3] = mouse, plasma, po, male ICR mice, intragastric administration, 10 mg/kg

Which IC50 (hP2X3 receptor) does the source give for Cc1cnc(-c2cc(C(=O)N[C@H](C)c3cnc(C(F)(F)F)nc3)cc(O[C@@H]3CCOC3)c2F)s1 [Compound I-3, 4-fluoro-3-(5-methylthiazol-2-yl)-5-(((R)-tetrahydrofuran-3-yl)oxy)-N—((R)-1-(2-(trifluoromethyl)pyrimidin-5-yl)ethyl)benzamide] here?
The IC50 was 168 nM.

With Cc1cnc(-c2cc(OC[C@H]3CN(C)CCO3)cc(C(=O)N[C@H](C)c3cnc(C(F)(F)F)nc3)c2F)s1 [Compound I-19, 2-fluoro-5-(((R)-4-methylmorpholin-2-yl)methoxy)-3-(5-methylthiazol-2-yl)-N—((R)-1-(2-(trifluoromethyl)pyrimidin-5-yl)ethyl)benzamide] as the compound, how does the IC50 (hP2X3 receptor) read?
Its IC50 is 310 nM.

For [2H]C([2H])([2H])N1CCO[C@@H](COc2cc(C(=O)N[C@H](C)c3cnc(C(F)(F)F)nc3)c(F)c(-c3ncc(C)s3)c2)C1 [Compound I-20, 2-fluoro-5-(((R)-4-(methyl-d3)morpholin-2-yl)methoxy)-3-(5-methylthiazol-2-yl)-N—((R)-1-(2-(trifluoromethyl)pyrimidin-5-yl)ethyl)benzamide], which IC50 (hP2X3 receptor) is on record?
Its IC50 is 373 nM.

For Cc1cnc(-c2cc(OC[C@H]3CNCCO3)cc(C(=O)N[C@H](C)c3cnc(C(F)(F)F)nc3)c2F)s1 [Compound I-18, 2-fluoro-3-(5-methylthiazol-2-yl)-5-(((R)-morpholin-2-yl)methoxy)-N—((R)-1-(2-(trifluoromethyl)pyrimidin-5-yl)ethyl)benzamide hydrochloride], which IC50 (hP2X3 receptor) is on record?
Its IC50 is 448 nM.

For Cc1cnc(-c2cc(OC3CCN(C)CC3)cc(C(=O)N[C@H](C)c3cnc(C(F)(F)F)nc3)c2F)s1 [Compound I-16, (R)-2-fluoro-5-((1-methylpiperidin-4-yl)oxy)-3-(5-methylthiazol-2-yl)-N-(1-(2-(trifluoromethyl)pyrimidin-5-yl)ethyl)benzamide], which IC50 (hP2X3 receptor) is on record?
Its IC50 is 433 nM.

Which IC50 (hP2X3 receptor) does the source give for Cc1cnc(-c2cc(OC3CCNCC3)cc(C(=O)N[C@H](C)c3cnc(C(F)(F)F)nc3)c2F)s1 [Compound I-17, (R)-2-fluoro-5-((1-piperidin-4-yl)oxy)-3-(5-methylthiazol-2-yl)-N-(1-(2-(trifluoromethyl)pyrimidin-5-yl)ethyl)benzamide] here?
The IC50 was 388 nM.

With Cc1cnc(-c2cc(OC[C@@H]3COCCN3C)cc(C(=O)N[C@H](C)c3cnc(C(F)(F)F)nc3)c2F)s1 [Compound I-9, 2-fluoro-5-(((S)-4-methylmorpholin-3-yl)methoxy)-3-(5-methylthiazol-2-yl)-N—((R)-1-(2-(trifluoromethyl)pyrimidin-5-yl)ethyl)benzamide] as the compound, how does the IC50 (hP2X3 receptor) read?
Its IC50 is 305 nM.

With Cc1cnc(-c2cc(O[C@@H](C)[C@H](C)O)cc(C(=O)N[C@H](C)c3cnc(C(F)(F)F)nc3)c2F)s1 [Compound I-28, 2-fluoro-5-(((2S, 3S)-3-hydroxybutan-2-yl)oxy)-3-(5-methylthiazol-2-yl)-N—((R)-1-(2-(trifluoromethyl)pyrimidin-5-yl)ethyl)benzamide] as the compound, how does the “Water/aqueous quinine solution (ratio of water intake to aqueous quinine solution intake)” value (rat taste) read?
Its value is 15.4.

What about the “pharmacokinetic properties in mouse compared with Reference compound 1 and Reference compound 2 (in words)” value ([1]; mouse assay, vs Reference compounds 1 and 2) of the same compound?
The value was “significantly improved pharmacokinetic properties”.

What about the AUC(0-t) [1, 3] of the same compound?
The AUC(0-t) was 8760 ng·h/mL.

What about the Cmax [1, 3] of the same compound?
The Cmax was 2400 ng/mL.

What about the Tmax [1, 3] of the same compound?
Its Tmax is 0.5 h.

And the half-life ([1]; mouse, plasma, po, male ICR mice, intragastric administration, 10 mg/kg, read-out: T½ (converted))?
Its half-life is 2.65 h.

What about the “Average cough times within 15 min” value [2] of the same compound?
The value was 9.1.

And the “Cough inhibition rate vs. solvent” value [2]?
Its value is 65.8%.

What about the IC50 (hP2X3 receptor) of the same compound?
The IC50 was 63 nM.

And the “antagonistic activity against hP2X3 receptor compared with Reference compound 1 (in words)” value (hP2X3 receptor)?
The value was “better antagonistic activity”.

With Cc1cnc(-c2cc(OC(C)C(C)O)cc(C(=O)N[C@H](C)c3cnc(C(F)(F)F)nc3)c2F)s1 (single isomer, unassigned) [Compound I-4] as the compound, how does the IC50 (hP2X3 receptor) read?
The IC50 was 63 nM.

And the “antagonistic activity against hP2X3 receptor compared with Reference compound 1 (in words)” value (hP2X3 receptor)?
Its value is “better antagonistic activity”.

With Cc1cnc(-c2cc(O[C@@H]3CCOC3)c(F)c(C(=O)N[C@H](C)c3cnc(C(F)(F)F)nc3)c2)s1 [Compound I-2, 2-fluoro-5-(5-methylthiazol-2-yl)-3-(((R)-tetrahydrofuran-3-yl)oxy)-N—((R)-1-(2-(trifluoromethyl)pyrimidin-5-yl)ethyl)benzamide] as the compound, how does the IC50 (hP2X3 receptor) read?
The IC50 was 298 nM.

What does the source list for Cc1cnc(-c2cc(OC3COC3)cc(C(=O)N[C@H](C)c3cnc(C(F)(F)F)nc3)c2F)s1 [Compound I-14, (R)-2-fluoro-3-(5-methylthiazol-2-yl)-5-(oxetane-3-yloxy)-N-(1-(2-(trifluoromethyl)pyrimidin-5-yl)ethyl)benzamide]?
IC50 (hP2X3 receptor): 99 nM; antagonistic activity against hP2X3 receptor compared with Reference compound 1 (in words) (hP2X3 receptor): better antagonistic activity

With Cc1cnc(-c2cc(OC(C)C(C)O)cc(C(=O)N[C@H](C)c3cnc(C(F)(F)F)nc3)c2F)s1 (single isomer, unassigned) [Compound I-5] as the compound, how does the IC50 (hP2X3 receptor) read?
Its IC50 is 50 nM.

And the “antagonistic activity against hP2X3 receptor compared with Reference compound 1 (in words)” value (hP2X3 receptor)?
Its value is “better antagonistic activity”.

Which IC50 (hP2X3 receptor) does the source give for Cc1cnc(-c2cc(OCC3CC3)cc(C(=O)N[C@H](C)c3cnc(C(F)(F)F)nc3)c2F)s1 [Compound I-15, (R)-5-(cyclopropylmethoxy)-2-fluoro-3-(5-methylthiazol-2-yl)-N-(1-(2-(trifluoromethyl)pyrimidin-5-yl)ethyl)benzamide] here?
The IC50 was 1360 nM.

With CC(O)C(C)Oc1cc(C(=O)N[C@H](C)c2cnc(C(F)(F)F)nc2)c(F)c(-c2ncc(Cl)s2)c1 (stereo partly drawn) [Compound I-7, 3-(5-chlorothiazol-2-yl)-2-fluoro-5-((cis-3-hydroxybutan-2-yl)oxy)-N—((R)-1-(2-(trifluoromethyl)pyrimidin-5-yl)ethyl)benzamide] as the compound, how does the IC50 (hP2X3 receptor) read?
The IC50 was 271 nM.
